Like-named read-outs stand apart in the source and are kept apart here.
Tests used:
[1] = target: T1, CYP17A1 (Homo sapiens, UniProt P05093); experiment: reconstituted […],20-lyase assay, HPLC, […] compound; type: biochemical; conditions: read-out: 17,20-Lyase Activity / Inhibition, %
T1 construct: recombinant human CYP17A1, reconstituted system; with NADPH-cytochrome P450 reductase (rat), cytochrome b5 (human)
T1 sequence (P00167 2-134 partner, one chain of several): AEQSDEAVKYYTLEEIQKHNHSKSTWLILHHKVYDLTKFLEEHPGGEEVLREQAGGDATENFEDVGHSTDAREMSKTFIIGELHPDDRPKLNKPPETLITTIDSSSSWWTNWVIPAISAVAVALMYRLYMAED

[2] = target: T2, CYP17A1 (Homo sapiens, UniProt P05093); experiment: UV-Vis spectrophotometric titration (type I spectral response); type: binding
T2 construct: recombinant human CYP17A1, purified
T2 sequence (P05093 1-508): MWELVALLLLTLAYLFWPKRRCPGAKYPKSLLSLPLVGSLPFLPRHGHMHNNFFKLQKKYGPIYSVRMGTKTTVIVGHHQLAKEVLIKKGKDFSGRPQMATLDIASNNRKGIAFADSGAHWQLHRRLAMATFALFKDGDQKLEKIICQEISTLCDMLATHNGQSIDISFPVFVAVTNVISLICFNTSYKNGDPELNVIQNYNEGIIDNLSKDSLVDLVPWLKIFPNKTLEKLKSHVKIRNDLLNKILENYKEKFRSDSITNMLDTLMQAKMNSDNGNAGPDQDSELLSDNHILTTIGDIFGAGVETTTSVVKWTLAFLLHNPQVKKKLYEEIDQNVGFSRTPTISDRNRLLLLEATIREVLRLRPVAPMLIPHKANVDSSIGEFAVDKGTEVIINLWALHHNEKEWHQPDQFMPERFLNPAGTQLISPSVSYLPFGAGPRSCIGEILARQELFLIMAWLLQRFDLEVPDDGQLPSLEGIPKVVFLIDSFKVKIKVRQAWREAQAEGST

[3] = test system: DU145; experiment: cells; parameters: resazurin (Alamar blue) viability assay, resorufin fluorescence, GI50 from dose-response; conditions: Homo sapiens, DU-145, 72 h; read-out: Viability after 72 h (GI50) DU145
Protocol: (§1) Cells were seeded into the 96-well tissue culture plates and, on the other day, compounds were added in different concentrations in duplicate for 72 h. Upon treatment, the resazurin solution (Sigma Aldrich, St. Louis, MI, USA) was added for 4 h, and then the fluorescence of resorufin was measured at 544 nm/590 nm (excitation/emission) using a Fluoroskan Ascent microplate reader (Labsystems, Budapest, Hungary). The GI50 value was calculated from the dose–response curves that resulted from the measurements using GraphPad Prism 5. Antiproliferative properties of all novel steroids were tested in two AR-positive prostate cancer cell lines (LNCaP and LAPC-4) and one AR-negative cell line (DU145) using the Alamar-blue assay after 72 h treatment.

[4] = test system: LAPC-4; experiment: cells; parameters: resazurin (Alamar blue) viability assay, resorufin fluorescence, GI50 from dose-response; conditions: Homo sapiens, LAPC4, 72 h; read-out: Viability after 72 h (GI50) LAPC-4
Protocol: as §1

[5] = test system: LNCaP; experiment: cells; parameters: resazurin (Alamar blue) viability assay, resorufin fluorescence, GI50 from dose-response; conditions: Homo sapiens, 72 h, read-out: Viability after 72 h (GI50) LNCaP
Protocol: as §1

[6] = test system: T3, AR; experiment: cells; parameters: species or system ARE14; ARE-driven firefly luciferase reporter; AR transcriptional activity normalised to 1 nM R1881; conditions: 24 h
T3 construct: endogenous AR in ARE14 reporter cells (22Rv1-derived)
Protocol: ARE14 cells were seeded (40,000 cells/well) into the Nunc™ MicroWell™ 96-well optical plate (Thermo Fisher Scientific, Waltham, MA, USA) on the second day. The cultivation medium was discarded, and the cells were washed with PBS. Analyzed compounds were dissolved in medium supplemented with CSS (agonist mode) or CSS with 1 nM R1881 (antagonist mode) and added to cells, including CSS and 1 nM R1881 controls. Upon 24 h of incubation, cells were washed with PBS and lysed for 10 min in a lysis buffer (10 mM Tris pH = 7.4, 2 mM DCTA, 1% nonidet P40, 2 mM DTT) at 37 °C. Next, a reaction buffer (20 mM tricine pH = 7.8, 1.07 mM MgSO4^.7H2O, 5 mM ATP, 9.4 mM luciferin) was added, and the luminescence was measured using a Tecan M200 Pro microplate reader ([…]). Based on the structural similarity of novel derivatives with galeterone and other published compounds (abiraterone, 3, and [6]), we tested the effect of our compounds towards the AR-transcriptional activity. Compounds were evaluated using an AR-dependent reporter cell line (ARE14) with a firefly-luciferase gene under the control of an androgen response element.

[7] = target: T4, CYP17A1 (Homo sapiens, UniProt P05093); experiment: reconstituted […]α-hydroxylase assay, HPLC, […] compound; type: biochemical; conditions: read-out: 17α-Hydroxylase Activity / Inhibition, %
T4 construct: recombinant human CYP17A1, reconstituted system; with NADPH-cytochrome P450 reductase (rat)
T4 sequence (P05093 1-508): T2 sequence (P05093 1-508)
T4 sequence (P00388 2-678 partner): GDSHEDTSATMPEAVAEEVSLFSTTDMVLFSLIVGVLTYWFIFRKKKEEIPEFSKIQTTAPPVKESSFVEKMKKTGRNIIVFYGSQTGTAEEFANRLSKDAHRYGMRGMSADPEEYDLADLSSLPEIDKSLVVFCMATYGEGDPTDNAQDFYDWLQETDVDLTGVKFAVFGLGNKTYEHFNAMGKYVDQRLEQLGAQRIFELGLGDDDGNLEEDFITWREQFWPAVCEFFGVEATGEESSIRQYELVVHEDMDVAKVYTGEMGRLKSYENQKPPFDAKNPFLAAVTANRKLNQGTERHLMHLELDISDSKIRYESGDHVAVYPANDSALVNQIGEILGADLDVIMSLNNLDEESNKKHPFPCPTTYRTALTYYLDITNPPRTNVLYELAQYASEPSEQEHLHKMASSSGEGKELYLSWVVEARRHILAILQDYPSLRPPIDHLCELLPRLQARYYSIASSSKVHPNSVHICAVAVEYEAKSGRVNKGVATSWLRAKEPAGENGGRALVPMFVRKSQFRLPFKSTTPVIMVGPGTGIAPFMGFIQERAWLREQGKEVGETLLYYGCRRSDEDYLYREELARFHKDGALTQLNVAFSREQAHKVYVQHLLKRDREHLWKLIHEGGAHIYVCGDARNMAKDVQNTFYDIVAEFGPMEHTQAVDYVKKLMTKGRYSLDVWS

[8] = target: T2, CYP17A1; experiment: UV-Vis spectrophotometric titration (type II spectral response); type: binding
[9] = compound alone, vs 1 nM R1881 = 100%, read-out: AGONIST MODE 2 μM
[10] = compound alone, vs 1 nM R1881 = 100%, read-out: AGONIST MODE 10 μM
[11] = compound alone, vs 1 nM R1881 = 100%, read-out: AGONIST MODE 50 μM
[12] = with 1 nM R1881, read-out: % of control remaining

Row | SMILES | inhibition at 50 µM [1] [%] | Kd ([2]; read-out: Kd) [µM] | GI50 [3] [µM] | GI50 [4] [µM] | GI50 [5] [µM] | activity at 2 µM [6, 9] [%] | activity at 10 µM [6, 10] [%] | activity at 50 µM [6, 11] [%] | activity at 2 µM [6, 12] [%] | activity at 10 µM [6, 12] [%] | activity at 50 µM [6, 12] [%] | inhibition at 50 µM [7] [%] | Kd [8] [µM] | Kd [2] [µM]
1 | C[C@]12CC[C@H]3[C@@H](CC=C4C[C@@H](O)CC[C@@]43C)[C@@H]1CC[C@@H]2Cc1cc(-c2cccnc2)on1 [41f, (17R)-17-((5-(Pyridin-3-yl)isoxazol-3-yl)methyl)-androst-5-en-3β-ol] | 41.1 | – | – | – | – | – | – | – | – | – | – | – | – | –
2 | C[C@]12CC[C@H]3[C@@H](CC=C4C[C@@H](O)CC[C@@]43C)[C@@H]1CC[C@@H]2Cc1ccno1 [24a, (17R)-(Isoxazol-5-ylmethyl)-androst-5-en-3β-ol] | – | 0.13 ± 0.02 | – | – | – | – | – | – | – | – | – | – | – | –
3 | C[C@]12CC[C@H]3[C@@H](CC=C4C[C@@H](O)CC[C@@]43C)[C@@H]1CC[C@@H]2Cc1cc(CO)no1 [compound 32, (17R)-17-((3-(Hydroxymethyl)isoxazol-5-yl)methyl)-androst-5-en-3β-ol] | – | 13.4 ± 2.38 | > 50 | 18.9 ± 7.2 | 19.5 ± 0.1 | 14 ± 1.1 | 12.1 ± 2.7 | 14.6 ± 0.5 | 99.7 ± 17.4 | 87.8 ± 20.9 | 31.1 ± 13.3 | – | – | –
4 | C[C@]12CC[C@H]3[C@@H](CC=C4C[C@@H](O)CC[C@@]43C)[C@@H]1CC[C@@H]2Cc1ccon1 [41a, (17R)-17-(Isoxazol-3-ylmethyl)-androst-5-en-3β-ol] | 42.3 | – | > 50 | > 50 | > 50 | 14.5 ± 1.5 | 14.7 ± 0.1 | 12.1 ± 1.3 | 98.2 ± 17.5 | 73.7 ± 14.9 | 50.8 ± 18.8 | – | – | –
5 | CC(C)c1cc(C[C@H]2CC[C@H]3[C@@H]4CC=C5C[C@@H](O)CC[C@]5(C)[C@H]4CC[C@]23C)on1 [24b, (17R)-17-((3-isopropylisoxazol-5-yl)methyl)-androst-5-en-3β-ol] | – | – | – | – | – | – | – | – | – | – | – | 45 | – | –
6 | CCCCc1cc(C[C@H]2CC[C@H]3[C@@H]4CC=C5C[C@@H](O)CC[C@]5(C)[C@H]4CC[C@]23C)on1 [24d, 17β-((3-Butylisoxazol-5-yl)methyl)-androst-5-en-3β-ol] | – | 1.5 ± 0.21 | > 50 | > 50 | > 50 | 17.8 ± 0.1 | 21.1 ± 1.6 | 18.6 ± 3.6 | 109 ± 12.1 | 113 ± 21.1 | 104 ± 42.6 | – | – | –
7 | CC(C)(O)c1cc(C[C@H]2CC[C@H]3[C@@H]4CC=C5C[C@@H](O)CC[C@]5(C)[C@H]4CC[C@]23C)on1 [24j, (17R)-17-((3-(2-Hydroxypropan-2-yl)isoxazol-5-yl)methyl)-androst-5-en-3β-ol] | – | 1.9 ± 0.23 | > 50 | 18.2 ± 1.2 | 25.8 ± 0.6 | 14.4 ± 2.8 | 12.6 ± 0.1 | 6.1 ± 1.5 | 100 ± 13.5 | 84.8 ± 17.4 | 21.6 ± 7.8 | – | – | –
8 | C[C@]12CC[C@H]3[C@@H](CC=C4C[C@@H](O)CC[C@@]43C)[C@@H]1CC[C@@H]2Cc1cc(CCl)no1 [compound 38, (17R)-17-((3-(Chloromethyl)isoxazol-5-yl)methyl)-androst-5-en-3β-ol] | – | – | > 50 | > 50 | > 50 | 14.6 ± 1 | 13 ± 0.4 | 7.3 ± 1.1 | 96.1 ± 11.2 | 92.6 ± 20.5 | 78.2 ± 24.9 | – | – | –
9 | C[C@]12CC[C@H](O)CC1=CC[C@@H]1[C@@H]2CC[C@]2(C)C(c3cccnc3)=CC[C@@H]12 [abiraterone] | – | – | – | – | – | – | – | – | – | – | – | – | < 1 | –
10 | C[C@]12CC[C@H]3[C@@H](CC=C4C[C@@H](O)CC[C@@]43C)[C@@H]1CC[C@@H]2Cc1cc(C2CC2)no1 [24c, (17R)-17-((3-Cyclopropylisoxazol-5-yl)methyl)-androst-5-en-3β-ol] | – | – | – | – | – | – | – | – | – | – | – | 45.7 | – | –
11 | C[C@]12CC[C@H]3[C@@H](CC=C4C[C@@H](O)CC[C@@]43C)[C@@H]1CC[C@@H]2CC(=O)/C(OC(=O)n1ccnc1)=C(\N)C1CC1 [compound 27, (E)-1-Amino-4-((17R)-3β-hydroxy-androst-5-en-17-yl)-1-cyclopropyl-3-oxobut-1-en-2-yl 1H-imidazole-1-carboxylate] | – | – | > 50 | > 50 | > 50 | 17.4 ± 0.5 | 20.9 ± 2.9 | 20.4 ± 4.2 | 89.7 ± 9.9 | 62 ± 14.8 | 63.5 ± 8 | – | – | –
12 | CC(=O)[C@H]1CC[C@H]2[C@@H]3CCC4=CC(=O)CC[C@]4(C)[C@H]3CC[C@]12C [Progesterone] | – | – | – | – | – | – | – | – | – | – | – | – | – | < 1
13 | C[C@]12CC[C@H](O)CC1=CC[C@@H]1[C@@H]2CC[C@]2(C)C(n3cnc4ccccc43)=CC[C@@H]12 [Gal, galeterone] | – | – | 47.6 ± 0.2 | 28.6 ± 0.6 | 46.8 ± 0.1 | 15.4 ± 0.4 | 10.8 ± 3.1 | 2.4 ± 1.1 | 65.2 ± 6.1 | 35.1 ± 3.3 | 3 ± 1.8 | – | – | –
14 | C[C@]12CC[C@H]3[C@@H](CC=C4C[C@@H](O)CC[C@@]43C)[C@@H]1CC[C@@H]2Cc1cc(-c2ccccc2)no1 [24e, (17R)-17-((3-Phenylisoxazol-5-yl)methyl)-androst-5-en-3β-ol] | – | – | > 50 | > 50 | > 50 | 14.7 ± 0.5 | 14.2 ± 1.4 | 12.8 ± 0.2 | 101 ± 9.5 | 101 ± 13.6 | 125 ± 27.4 | – | – | –

Source: paper PMC9656436, “Synthesis and Biological Evaluation of New Isoxazolyl Steroids as Anti-Prostate Cancer Agents” (International Journal of Molecular Sciences, 2022)
